Converted amounts (≈) assume the structure as drawn.
How the values were obtained:
HIV-I Protease = molecular target: T1, HIV-I Protease (Human immunodeficiency virus type 1 group M subtype B, UniProt P04585); test: HIV Protease Inhibition (undecapeptide substrate hydrolysis, HPLC); assay type: biochemical; conditions: averaged; substrate 40 μM, 37° C., pH 4.7 DTT buffer, 5 minutes; read-out: 50% Inhibition Concentration (Averaged)
T1 construct: HIV-I Protease: The enzyme is obtained from Bachem Bioscience Inc; purchased Bachem Bioscience Inc
Description: DTT Buffer: 1.0 mM dithiothreitol (DTT) was prepared fresh daily in 0.1% polyethylene glycol (mw 8000) 80 mM NaOAc, 160 mM NaCl, 1.0 mM EDTA, and brought to pH 4.7 with HCl.
HIV-I Protease: The enzyme is obtained from Bachem Bioscience Inc. The undiluted enzyme is thawed from -80° C. and diluted 50-fold with DTT buffer. The solution is always kept at 0° C. on ice water and used in the experiment within 20 minutes after thawing.
Enzyme Substrate: Substrate III from Bachem Bioscience Inc. is the undecapeptide H-His-Lys-Ala-Arg-Val-Leu-p-Nitrophenylalanine-Glu-Ala-Norleucine-Ser-NH2 (>97% purity). A 200 μM stock solution in DTT buffer is prepared and stored on ice. Substrate solution is prepared fresh daily.
Test Compound: 10 mM inhibitor (I) in dimethyl sulfoxide (DMSO) is diluted to 200 μM with DTT buffer. From the 200 μM stock solution is made a 10 μM stock solution with 2% DMSO in DTT buffer. The two inhibitor solutions are used to make final [I]=100, 50, 20, 10, 5, 2, 1, 0.5 and 0 μM with 2% DMSO in DTT buffer in each reaction well (total inhibitor volume of 50 μl).
To each reaction well is added 20 μl of substrate (final concentration of 40 μM), 50 μl of inhibitor (at a concentration such that final dilution will produce the test concentration) and 20 μl of DTT buffer. The reaction plate (96 wells) is incubated at 37° C. for at least 5 minutes.
10 μl of the diluted protease is added to the reaction well while the reaction plate is shaking. Once shaken for 10 seconds, the plate is returned to the heating block at 37° C. (Final reaction volume=100 μl.)
The reaction is incubated for 5 minutes at 37° C. The reaction is stopped by placing the reaction plate on the shaker and adding 20 μl of 10% trifluoroacetic acid (TFA) and shaking for 10 seconds. The amount of proteolysis is then determined by separation of noncleaved substrate and two cleaved products with reverse-phase HPLC, while measuring absorbance at 220 nm to determine the relative peak areas of the three components. The relative peak areas are used to calculate % conversion to product as a function of inhibitor concentration. The data is plotted as % Control (the ratio of % conversion in the presence and absence of inhibitor×100) versus inhibitor concentration and fit with the equation Y=100/1+(X/IC50)^A, where IC50 is the inhibitor concentration at 50% inhibition and A is the slope of the inhibition curve.

[1] = system: Staphylococcus aureus H228; test: Antibacterial activity, microtitration dilution method; assay type: cell-based; conditions: read-out: Antibacterial Activity, minimum inhibitory concentration (MIC)
From the text: (§1) The compounds of the invention display antibacterial activity when tested by the microtitration dilution method as described in Heifetz, et al., Antimicr. Agents. & Chemoth. 6:124 (1974) which is incorporated herein by reference.
(§2) By use of the above referenced method, the following minimum inhibitory concentration values (MICs in μg/mL) were obtained for representative compounds of the invention vs. clinically relevant gram positive pathogens which have become highly resistant to conventional therapy in recent years.

[2] = system: Streptococcus pyogenes C203; test: as above; assay type: cell-based; conditions: read-out: Antibacterial Activity, minimum inhibitory concentration (MIC)
From the text: as §1, §2

[3] = system: Streptococcus pneumonia 5V-1; test: as above; assay type: cell-based; conditions: Streptococcus pneumoniae, 5V1, read-out: Antibacterial Activity, minimum inhibitory concentration (MIC)
From the text: as §1, §2

[4] = system: Enterococcus foecalis MGH2; test: as above; assay type: cell-based; conditions: read-out: Antibacterial Activity, minimum inhibitory concentration (MIC)
From the text: as §1, §2

[5] = system: Staphylococcus aureus UC-76; test: as above; assay type: cell-based; conditions: UC76, read-out: Antibacterial Activity, minimum inhibitory concentration (MIC)
From the text: as §1, §2

HIV = conditions: R. Nagorny et al., AIDS 1993; cited from earlier work

Row | SMILES | MIC [1] [µg/mL] | MIC [2] [µg/mL] | MIC [3] [µg/mL] | MIC [4] [µg/mL] | MIC [5] [µg/mL] | IC50 (HIV-I Protease) [µM] | inhibition of HIV infection (in words) (HIV)
1 | CC(C)c1ccccc1Sc1c(O)cc(-c2cc(Cl)cc(Cl)c2)oc1=O [Example 193, 6-(3,5-Dichlorophenyl)-4-hydroxy-3-[(2-isopropylphenyl)thio]-2H-pyran-2-one] |  |  |  |  |  | 0.026 | 
2 | CC(C)c1ccccc1Sc1c(O)cc(-c2cccc(-c3ccccc3)c2)oc1=O [Example 167, 6-(1,1'-Biphen-3-yl)-4-hydroxy-3-[(2-isopropylphenyl)thio]-2H-pyran-2-one] | 6.2 (≈ 15 µM) | 6.2 (≈ 15 µM) | 6.2 (≈ 15 µM) | 12.5 (≈ 30.2 µM) | 6.2 (≈ 15 µM) |  | 
3 | CCC(=O)Oc1cc(-c2ccccc2)oc(=O)c1SCc1ccccc1 [Example 49, 2-Oxo-6-phenyl-3-[ (phenylmethyl)thio]-2H-pyran-4-ylpropanoic acid ester] |  |  |  |  |  | 1.6 | 
4 | CC(C)c1ccccc1Sc1c(O)cc(-c2ccc(OCc3cccnc3)cc2)oc1=O [Example 172, 4-Hydroxy-3-[(2-isopropylphenyl)thio]-6-[4-(pyridin-3-ylmethoxy)phenyl]-2H-pyran-2-one] | 50 (≈ 112 µM) | 50 (≈ 112 µM) | 50 (≈ 112 µM) | 100 (≈ 224 µM) | 50 (≈ 112 µM) |  | 
5 | Cc1cc(C)cc(-c2cc(O)c(Sc3ccccc3C(C)C)c(=O)o2)c1 [Example 169, 6-(3,5-Dimethylphenyl)-4-hydroxy-3-[(2-isopropylphenyl)-thio]-2H-pyran-2-one] |  |  |  |  |  | 0.015 | 
6 | CC(=O)CC(c1ccccc1)c1c(O)c2ccccc2oc1=O (stereo not drawn) [Warfarin, 3-(α-acetonylbenzyl)-4-hydroxycoumarin] |  |  |  |  |  |  | inhibiting cell-free and cell-mediated HIV infection
7 | O=c1oc(-c2ccc(OCCO)cc2)cc(O)c1SCCc1ccccc1 [Example 160, 4-Hydroxy-6-[4-(2-hydroxyethoxy)phenyl]-3-[(2-phenylethyl)thio]-2H-pyran-2-one] |  |  |  |  |  | 0.36 | 

Second part, led by results:

Row | MIC [1] [µg/mL] | MIC [2] [µg/mL] | MIC [3] [µg/mL] | MIC [4] [µg/mL] | MIC [5] [µg/mL] | SMILES | IC50 (HIV-I Protease) [µM] | inhibition of HIV infection (in words) (HIV)
8 | 12.5 (≈ 36.3 µM) | 12.5 (≈ 36.3 µM) | 12.5 (≈ 36.3 µM) | 25 (≈ 72.5 µM) | 12.5 (≈ 36.3 µM) | O=c1oc(-c2ccccc2Cl)cc(O)c1SCc1ccccc1 [Example 2, 6-(2-chlorophenyl)-4-hydroxy-3-[(phenylmethyl)thio]-2H-pyran-2-one] |  | 
9 | 25 (≈ 58.1 µM) | 25 (≈ 58.1 µM) | 25 (≈ 58.1 µM) | 50 (≈ 116 µM) | 25 (≈ 58.1 µM) | O=c1oc(-c2ccc(OCc3ccccc3)cc2)cc(O)c1SCCc1ccccc1 [Example 29, 4-Hydroxy-3-[(2-phenylethyl)thio]-6-[4-(phenylmethoxy)phenyl]-2H-pyran-2-one] |  | 

— US5808062A, “Pyrone derivatives as protease inhibitors and antiviral agents” (Warner-Lambert Company, priority 1994, dated 1998)
